According to paper PMC5688144, “Assay interference and off-target liabilities of reported histone acetyltransferase inhibitors” (Nature Communications, 2017):

Experiments:
Absorbance spectra = type: physicochemical; settings: for Absorption max (nm) / Absorbance counter-screen: 25 mM sodium phosphate, pH 7.0; for Absorbance counter-screen: 300-750 nm; for Molar absorptivity: at absorption max
Summary of the method: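 Spectra from 300 to 750 nm were recorded at 100, 50 and 10 μM final compound in 25 mM sodium phosphate pH 7.0 with 2.0% DMSO, after 10 min at RT, read at 25 °C. Significant absorbance meant molar absorptivity above 2000 M^−1 cm^−1 at wavelengths above 300 nm.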

AmpC β-lactamase = molecular target: T1, AmpC β-lactamase (Escherichia coli, UniProt P00811); test: biochemical; parameters: species or system E. coli; settings: for AmpC aggregation counter-screen: ± 0.01% Triton X-100
T1 construct: Recombinant E. coli AmpC (amino acids 20–377); purchased MyBioSource.com
T1 sequence (P00811 20-377): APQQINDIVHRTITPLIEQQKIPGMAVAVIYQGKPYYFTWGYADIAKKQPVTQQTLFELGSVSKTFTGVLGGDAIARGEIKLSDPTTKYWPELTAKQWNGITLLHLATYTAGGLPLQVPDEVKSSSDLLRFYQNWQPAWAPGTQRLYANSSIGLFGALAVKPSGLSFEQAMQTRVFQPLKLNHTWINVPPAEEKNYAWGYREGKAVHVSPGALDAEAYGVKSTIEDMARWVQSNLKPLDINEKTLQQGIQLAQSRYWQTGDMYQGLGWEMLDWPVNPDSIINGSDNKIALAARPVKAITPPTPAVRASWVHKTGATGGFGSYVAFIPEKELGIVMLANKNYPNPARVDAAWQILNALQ
Summary of the method: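 Compounds at 10 μM (2% DMSO, triplicate) were preincubated 5 min at RT with ~5 nM E. coli AmpC (residues 20–377) in 25 mM sodium phosphate pH 7.0, with or without 0.01% Triton X-100, then given 100 μM nitrocefin. Activity was normalized to DMSO; aggregation was called on a detergent-dependent change >30% (adjusted P <0.05).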

[1] = Autofluorescence counter-screen; type: physicochemical; settings: for Fluorescence counter-screen: autofluorescence at eight fluorophore settings, 32 nM-100 μM compound
Method: Selected test compounds were assessed for autofluorescence using an adaption of published procedures. […] Final concentration of DMSO was constant at 1.0% (v/v). Compounds and fluorophore standards were transferred as 10 mM DMSO stock solutions to 384-well black polystyrene microplates via Echo 550 dispenser. The plate arrangement was purposefully designed to minimize optical crosstalk by fluorophore standards. All measurements were performed in ALARM NMR buffer (25 mM sodium phosphate, pH 7.0) at 25 °C. Aliquots of 20 μL buffer were dispensed into microplate wells via ThermoFisher Multidrop dispenser. Compounds were shaken for 1 min on a plate shaker, centrifuged briefly for 1 min at 1000×g, then allowed to incubate at RT in buffer for 10 min before measuring fluorescence intensity on a SpectraMax M3 plate reader under reduced lighting. […] Bandwidth filters were set to default mode. Fluorescence intensity was measured for each test compound using each of the eight fluorophore standard settings. Fluorophores present on each plate were then used to construct normalized fluorescence dose-responses (“fluorophore-equivalent concentrations”, FEC). Fluorescence intensity for each test compound was converted to the appropriate FEC.

[2] = Fluorescence quenching counter-screen; type: physicochemical; settings: 10 μM fluorophore; 32 nM-100 μM compound
Method: Selected test compounds were assessed for fluorescence quenching using adaptions of previously published procedures[9],[24]. Briefly, test compounds and individual fluorophore standards were incubated together. The fluorescence intensity of these mixtures was compared to the fluorescence intensity of the same fluorophore standards minus test compounds. Each microplate contained positive control columns (DMSO plus fixed concentration of a single fluorophore), negative control columns (DMSO), and experimental wells (test compounds plus fixed concentration of a single fluorophore). […] Final concentration of DMSO was constant at 2.0% (v/v). […] All measurements were performed in ALARM NMR buffer (25 mM sodium phosphate, pH 7.0) at 25 °C. Aliquots of 20 μL buffer were dispensed into microplate wells via ThermoFisher Multidrop dispenser. Microplates were shaken for 1 min on a plate shaker, centrifuged briefly for 1 min at 1000×g, then allowed to incubate at RT for 10 min before measuring fluorescence intensity on a SpectraMax M3 plate reader under reduced lighting. Instrument settings for each fluorophore were unchanged from the aforementioned autofluorescence studies.

Compound	Absorption max (nm) (Absorbance spectra)	Absorbance counter-screen (Absorbance spectra)	Molar absorptivity (Absorbance spectra) [M⁻¹ cm⁻¹]	AmpC aggregation counter-screen (AmpC β-lactamase; 10 μM compound)	inhibition at 10 µM (AmpC β-lactamase; read-out: % Inhibition, AmpC) [%]	Fluorescence counter-screen [1]	Quenching counter-screen [2]	Fluorophore interference ([1]; fluorophore settings with autofluorescence)	AmpC counter-screen result (AmpC β-lactamase; 10 μM compound, detergent-sensitive modulation)
COc1cc(/C=C/c2cc(/C=C/c3ccc(O)c(OC)c3)n(-c3ccc(C(=O)[O-])cc3)n2)ccc1O.[Na+] [Compound 17, CTK7A]	325	Flagged (Significant absorbance was defined as molar absorptivity constants greater than 2000 M^−1 cm^−1 at wavelengths greater than 300 nm)	30000	Detergent-sensitive (activator)	-52 ± 35	Negative	Flagged (Significant fluorescence quenching was defined as signal reduction greater than 25% of the corresponding fluorophore signal at any test compound concentration)	–	–
O=c1c2cccnc2sn1Cc1ccc(C(F)(F)F)cc1 [Compound 3, PU141]	315	Flagged (Significant absorbance was defined as molar absorptivity constants greater than 2000 M^−1 cm^−1 at wavelengths greater than 300 nm)	2700	Detergent-insensitive	–	Flagged (Significant autofluorescence was defined as compounds with FECs greater than 100 nM at any compound concentration)	Negative	4MU, AlexaFluor 350	–
O=C1/C(=C/c2ccc(O)c(Br)c2)CCC/C1=C\c1ccc(O)c(Br)c1 [Compound 12, HAT inhibitor II]	355	Flagged (Significant absorbance was defined as molar absorptivity constants greater than 2000 M^−1 cm^−1 at wavelengths greater than 300 nm)	5100	Detergent-sensitive (Aggregators were defined as compounds with significant detergent-dependent changes in AmpC activity (t-test, adjusted P-value <0.05; mean differences greater than 30%))	–	Negative	Flagged (Significant fluorescence quenching was defined as signal reduction greater than 25% of the corresponding fluorophore signal at any test compound concentration)	–	–
CCCCCCCc1ccc(CCc2cccc(O)c2C(=O)O)cc1 [Compound 15, MG 149]	300	Negative	–	Detergent-insensitive	–	Negative	Flagged (Significant fluorescence quenching was defined as signal reduction greater than 25% of the corresponding fluorophore signal at any test compound concentration)	–	negative
COc1ccc(/C(Cl)=C(/C=O)c2ccc(OC)cc2)cc1 [Compound 18, Windorphen]	345	Flagged (Significant absorbance was defined as molar absorptivity constants greater than 2000 M^−1 cm^−1 at wavelengths greater than 300 nm)	4300	Detergent-insensitive	–	Negative	Flagged (Significant fluorescence quenching was defined as signal reduction greater than 25% of the corresponding fluorophore signal at any test compound concentration)	–	–
Garcinol [Compound 13]	290	Negative	–	Detergent-sensitive (Aggregators were defined as compounds with significant detergent-dependent changes in AmpC activity (t-test, adjusted P-value <0.05; mean differences greater than 30%))	–	Negative	Flagged (Significant fluorescence quenching was defined as signal reduction greater than 25% of the corresponding fluorophore signal at any test compound concentration)	–	–
CCCCCCCCCCCC1=C(O)C(=O)C=C(O)C1=O [Compound 9, Embelin]	315	Flagged (Significant absorbance was defined as molar absorptivity constants greater than 2000 M^−1 cm^−1 at wavelengths greater than 300 nm)	21000	Detergent-sensitive (Aggregators were defined as compounds with significant detergent-dependent changes in AmpC activity (t-test, adjusted P-value <0.05; mean differences greater than 30%))	–	Negative	Flagged (Significant fluorescence quenching was defined as signal reduction greater than 25% of the corresponding fluorophore signal at any test compound concentration)	–	–
